Consider one sequence from patent US20100034839A1, “METHODS FOR TREATING VIRAL DISORDERS” (priority 2008, published 2010).

The test system of the assay is CLIP^+ B cells in human PBMC. The experiment in a line: Peptide replacement of CLIP on R848-activated human PBMC B cells. To be noted: PBMC of two donors cultured with R848 for 48 hours with peptide. The format is cell-based. As to the method: FIG. 13 depicts TLR activation results in ectopic CLIP expression on human B cells from peripheral blood mononuclear cells (PBMC) cultures. FIG. 13a: human PBMC from five donors were cultured for 24 hours with toll ligands (CpG-ODN, LPS, Pam3Cys, and Poly I:C) and were stained with a pan anti-HLA-DR-FITC antibody (values of isotype controls were subtracted from the specific stains, ΔMFI). FIG. 13b: cells were stained using anti-human CLIP-FITC versus CD19-PE (values of isotype controls were subtracted from the specific stains, ΔMFI). For FIGS. 13a & 13b: nil vs. CpG p=0.06821; nil vs. LPS p=0.0390; nil vs. PAM p=0.0124. FIG. 13c: cells were stained for CLIP-FITC versus CD19-PE as described for FIG. 13b. The data represent the percent of total PBMC that are CLIP+ B cells subsequent to treatment. For FIG. 13c: nil vs. CpG p=0.0058; nil vs. LPS p=0.0254. […]
PBMC were prepared from a total of seven adult normal donors, five for examining the effects of TLR binding on the percentage of ectopic CLIP^+ B cells and changes in mean fluorescence intensity of the CLIP staining resulting from TLR stimulation with CpG-ODN, LPS, Pam-3-Cys, and Poly I:C. […] Cells were analyzed using either a BD FacsCalibur, for the five samples, or a Coulter FC500 for the two tissue typed samples. […]

As to FRIMAVLAS, the “percentage of CLIP^+ B cells and level of CLIP per B cell” value was “reduced the percentage of CLIP^+ B cells and the level of CLIP per B cell to pre-treatment levels”.
